Assay results taken from patent US12435091B2, “RNA-binding protein multimerization inhibitors and methods of use thereof” (THE UAB RESEARCH FOUNDATION, priority 2020, dated 2025).
≈ marks a conversion by molar mass, not a printed value. Where two headings read alike, the source gives them in different places.

Key:
AAK1 = AAK1 (Homo sapiens, UniProt Q2M2I8); experiment: SelectScreen kinase profiling, LanthaScreen Binding
Protocol: (§1) The kinase inhibitory potentials of compounds as described herein (e.g., SRI-42127 and SRI-41664) were evaluated by ThermoFisher Scientific's SelectScreen™ Kinase Profiling Service. The following kinase inhibitory assays were utilized: ZLYTE (Madison, WI) for NTRK1, PIM1, and cMET kinases; LanthaScreen Binding (Madison, WI) for AAK1 kinase; and Adapta (Madison, WI) for IRAK1 kinase.

[1] = tested on: U251 and XD456 glioma cell lines; experiment: western blotting of glioma cell fractions (Bcl2, Mcl1, SOX2, cleaved PARP, cleaved caspase 3); assay type: cell-based; details: U251 and XD456, 10 uM for 48 hours
Protocol: Western blotting was performed. Nuclear and cytoplasmic protein fractionations were performed using NE-PER Nuclear and Cytoplasmic extraction reagents (ThermoFisher Scientific). Anti-lamin A/C and anti-Tubulin alpha antibodies were utilized to verify nuclear and cytoplasmic fractions, respectively. Antibodies against lamin A/C, cleaved PARP, cleaved caspase 3, SOX2, and Mcl1 were purchased from Cell Signaling Technology (Danvers, MA). Anti-Tubulin alpha antibody was purchased from Sigma-Aldrich. Antibodies against HuR, actin, and Bcl2 were purchased from Santa Cruz Biotechnology (Santa Cruz, CA). Polyclonal anti-HuR antibody for HuR/mRNA co-immunoprecipitation was purchased from MBL International (Woburn, MA).
In FIG. 8B, representative western blots confirm reduction of Bcl2 and Mcl1 proteins in cytoplasmic fractions of U251 and XD456 cell lines following treatment with compounds as described herein, 10 uM for 48 hours. SOX2 reduction in nuclear fractions indicates decrease of tumorigenicity of cell lines after treatment with compounds as described herein. Actin and Lamin A/C were utilized for data normalization in cytoplasmic and nuclear fractions, respectively.
In FIG. 8C, representative western blots illustrate appearances of cleaved PARP and cleaved caspase 3 in glioma cell lines after treatment with compounds as described herein, 10 uM for 48 hours. […]

IRAK1 = IRAK1 (Homo sapiens, UniProt P51617); experiment: SelectScreen kinase profiling, Adapta; assay type: biochemical
Sequence of IRAK1 (P51617 whole entry): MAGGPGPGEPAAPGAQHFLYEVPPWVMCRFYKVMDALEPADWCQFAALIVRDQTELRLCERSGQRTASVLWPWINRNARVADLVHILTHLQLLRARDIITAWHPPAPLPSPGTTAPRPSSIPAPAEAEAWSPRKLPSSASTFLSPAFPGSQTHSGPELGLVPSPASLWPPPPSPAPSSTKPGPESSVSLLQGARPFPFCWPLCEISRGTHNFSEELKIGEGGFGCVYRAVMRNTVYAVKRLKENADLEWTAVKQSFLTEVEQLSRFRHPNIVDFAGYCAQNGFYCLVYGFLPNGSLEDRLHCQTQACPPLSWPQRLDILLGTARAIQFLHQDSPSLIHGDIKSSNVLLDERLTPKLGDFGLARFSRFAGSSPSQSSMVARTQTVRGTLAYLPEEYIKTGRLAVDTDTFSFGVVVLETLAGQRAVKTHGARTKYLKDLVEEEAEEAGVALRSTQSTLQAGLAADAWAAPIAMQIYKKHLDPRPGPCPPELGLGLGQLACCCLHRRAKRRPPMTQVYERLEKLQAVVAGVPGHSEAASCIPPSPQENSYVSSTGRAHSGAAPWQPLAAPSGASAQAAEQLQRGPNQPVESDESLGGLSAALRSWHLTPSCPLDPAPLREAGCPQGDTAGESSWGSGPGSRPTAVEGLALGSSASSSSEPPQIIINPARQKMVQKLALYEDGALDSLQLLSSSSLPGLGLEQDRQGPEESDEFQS
Protocol: as §1

U251 glioma cell line = experiment: PrestoBlue cell viability assay; assay type: cell-based; details: Homo sapiens, U-251, 48 h, U251, 48 hours of treatment; read-out: IC50 cell viability
Protocol: (§2) PrestoBlue cell viability reagent (ThermoFisher Scientific; Waltham, MA) was used for cell viability assays. The inhibitory dose-response data were normalized to the control (treatment with vehicle); the inhibitory dose-response curves, which were fitted by using Boltzmann equation, and the corresponding IC50s were generated by using OriginPro software (OriginLab Corporation, CA).
(§3) The glioma suppressive potentials of the new class of HuR multimerization inhibitors were evaluated by utilizing SRI-41664 and SRI-42127 compounds in several cell-based assays. First, it was confirmed that the SRI-41664 and SRI-42127 compounds are cytotoxic for established and PDGx cell lines. FIG. 5A illustrates the inhibitory dose responses of SRI-41664 and SRI-42127 compounds in the established U251, LN229, and the PDGx XD456 glioma cell lines. […] An HuR-overexpression approach was employed to confirm SRI-42127 inhibitory potency against HuR dimerization.

[2] = tested on: PDGx XD456 glioma cell line; experiment: PrestoBlue cell viability assay; assay type: cell-based; details: Glioma cell; XD456, 48 hours of treatment
Protocol: as §2, §3

LN229 glioma cell line = experiment: PrestoBlue cell viability assay; assay type: cell-based; details: Homo sapiens, LN-229; LN229, 48 hours of treatment
Protocol: as §2, §3

PIM1 = PIM1 (Homo sapiens, UniProt P11309); experiment: SelectScreen kinase profiling, ZLYTE; assay type: biochemical
Sequence of PIM1 (P11309 whole entry): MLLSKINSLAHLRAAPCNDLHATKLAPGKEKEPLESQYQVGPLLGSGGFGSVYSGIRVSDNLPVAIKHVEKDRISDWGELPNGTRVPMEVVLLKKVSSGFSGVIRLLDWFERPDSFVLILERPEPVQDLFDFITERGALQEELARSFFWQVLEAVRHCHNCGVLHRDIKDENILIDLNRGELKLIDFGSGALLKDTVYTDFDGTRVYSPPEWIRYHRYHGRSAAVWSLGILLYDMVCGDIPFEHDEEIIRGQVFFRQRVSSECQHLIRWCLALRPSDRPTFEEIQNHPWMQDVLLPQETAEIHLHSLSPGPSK
Protocol: as §1

cMET = cMET (Homo sapiens, UniProt P08581); experiment: SelectScreen kinase profiling, ZLYTE; assay type: biochemical
Sequence of cMET (P08581 25-1390): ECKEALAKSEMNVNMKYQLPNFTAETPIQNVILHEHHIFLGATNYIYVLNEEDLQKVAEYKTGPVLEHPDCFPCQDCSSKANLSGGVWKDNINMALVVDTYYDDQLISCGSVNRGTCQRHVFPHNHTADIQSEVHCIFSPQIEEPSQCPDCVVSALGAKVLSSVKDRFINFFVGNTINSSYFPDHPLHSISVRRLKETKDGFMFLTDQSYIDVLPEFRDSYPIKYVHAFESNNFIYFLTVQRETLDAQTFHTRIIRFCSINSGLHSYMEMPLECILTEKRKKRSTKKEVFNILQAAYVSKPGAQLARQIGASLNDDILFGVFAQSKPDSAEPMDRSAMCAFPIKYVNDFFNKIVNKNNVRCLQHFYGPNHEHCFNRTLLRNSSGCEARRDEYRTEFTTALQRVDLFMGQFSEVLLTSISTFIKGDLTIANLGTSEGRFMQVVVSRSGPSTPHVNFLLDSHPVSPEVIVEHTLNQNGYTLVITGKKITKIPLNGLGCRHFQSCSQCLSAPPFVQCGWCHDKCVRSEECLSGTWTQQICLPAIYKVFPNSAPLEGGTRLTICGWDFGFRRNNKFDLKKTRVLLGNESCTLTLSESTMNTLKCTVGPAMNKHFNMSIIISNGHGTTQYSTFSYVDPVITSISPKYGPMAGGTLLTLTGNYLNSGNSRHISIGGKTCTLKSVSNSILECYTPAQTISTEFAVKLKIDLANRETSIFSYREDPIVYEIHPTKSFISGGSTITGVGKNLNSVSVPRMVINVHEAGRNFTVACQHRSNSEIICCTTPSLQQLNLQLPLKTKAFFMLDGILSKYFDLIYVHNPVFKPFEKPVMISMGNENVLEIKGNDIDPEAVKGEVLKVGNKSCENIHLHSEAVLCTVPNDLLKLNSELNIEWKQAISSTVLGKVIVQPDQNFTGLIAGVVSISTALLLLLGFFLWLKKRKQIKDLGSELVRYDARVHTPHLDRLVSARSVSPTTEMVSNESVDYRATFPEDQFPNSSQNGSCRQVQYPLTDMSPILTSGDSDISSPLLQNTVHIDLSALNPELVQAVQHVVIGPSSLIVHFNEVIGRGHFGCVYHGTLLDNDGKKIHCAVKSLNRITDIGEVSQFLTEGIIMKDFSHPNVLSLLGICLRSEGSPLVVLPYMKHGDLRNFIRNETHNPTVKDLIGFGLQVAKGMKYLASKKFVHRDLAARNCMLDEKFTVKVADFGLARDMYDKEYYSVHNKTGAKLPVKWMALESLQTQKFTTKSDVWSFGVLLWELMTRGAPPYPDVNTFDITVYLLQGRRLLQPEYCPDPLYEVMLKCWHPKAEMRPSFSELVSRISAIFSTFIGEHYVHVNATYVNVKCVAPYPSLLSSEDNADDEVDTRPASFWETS
Protocol: as §1

TRKA (NTRK1) = TRKA (NTRK1) (Homo sapiens, UniProt P04629); experiment: SelectScreen kinase profiling, ZLYTE; assay type: biochemical
Sequence of TRKA (NTRK1) (P04629 33-796): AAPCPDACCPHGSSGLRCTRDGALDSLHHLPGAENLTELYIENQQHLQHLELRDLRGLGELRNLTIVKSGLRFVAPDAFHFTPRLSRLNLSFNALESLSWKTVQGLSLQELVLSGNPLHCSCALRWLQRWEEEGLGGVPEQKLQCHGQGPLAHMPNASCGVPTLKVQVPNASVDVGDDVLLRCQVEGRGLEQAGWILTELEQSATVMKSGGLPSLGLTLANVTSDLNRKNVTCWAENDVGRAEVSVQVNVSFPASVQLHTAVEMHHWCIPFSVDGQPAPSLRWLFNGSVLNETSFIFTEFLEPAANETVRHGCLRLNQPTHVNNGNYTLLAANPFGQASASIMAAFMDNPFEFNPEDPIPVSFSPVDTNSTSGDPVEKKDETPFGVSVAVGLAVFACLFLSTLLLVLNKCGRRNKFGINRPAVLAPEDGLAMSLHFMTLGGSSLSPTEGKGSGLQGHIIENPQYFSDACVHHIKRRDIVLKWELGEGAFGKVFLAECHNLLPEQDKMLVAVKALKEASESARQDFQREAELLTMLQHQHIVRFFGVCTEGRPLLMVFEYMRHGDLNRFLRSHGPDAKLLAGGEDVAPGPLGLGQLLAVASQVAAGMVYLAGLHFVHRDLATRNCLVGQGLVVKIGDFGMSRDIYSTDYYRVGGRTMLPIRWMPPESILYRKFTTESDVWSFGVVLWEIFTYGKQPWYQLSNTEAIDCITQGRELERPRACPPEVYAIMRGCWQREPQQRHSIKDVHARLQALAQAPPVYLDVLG
Protocol: as §1

[3] = tested on: U251 cells expressing Fluc construct; experiment: control Fluc (full length luciferase) reporter assay in U251 cells; assay type: cell-based; details: Homo sapiens, U-251, 6 h; Concn 50 uM; read-out: Fluc Imax % Inh
Protocol: The oncogenic activity of HuR is driven by subcellular localization into the cytoplasm and formation of multimers of HuR. To develop cell based assays to characterize the ability of small molecules to disrupt this process, a split luciferase assay detecting the formation of HuR dimers was developed. The assays were performed in 96 well plates with clear bottom (Corning Inc., Corning, NY). Cells with designed constructs (30,000-50,000 in number) were plated per well; the constructs were induced by doxycycline (0.75 ug/ml) for 48 hours. The evaluated compounds at different concentrations and the corresponding vehicle as the control were administered for 6 hours. The luminescence signals were detected by using InfinitiM200 plate reader (TECAN, Morrisville, NC) in the presence of the luciferase substrate luciferin (D-Luciferin, potassium salt), which was purchased from GoldBio (St Louis, MO). A multichannel pipette (XL 3000I™, Denville Scientific, South Plainfield, NJ) was used in all procedures to ensure the experiment quality. […]
(§4) Squares represent luminescence signal from reporter representing HuR dimers (U251 cells co-expressing HuR-Nluc and HuR-Cluc constructs); circles represent luminescence signal from control reporter (U251 cells expressing Fluc construct). Results are shown as mean+SD.

HuR = molecular target: T1, HuR (Homo sapiens, UniProt Q15717); experiment: cell-based split firefly luciferase-HuR dimerization assay; details: for IC50: read-out: HuR IC50
T1 construct: expressed in transfected cells; host or cells: U251 glioma cells, doxycycline-inducible constructs
T1 sequence (Q15717 whole entry): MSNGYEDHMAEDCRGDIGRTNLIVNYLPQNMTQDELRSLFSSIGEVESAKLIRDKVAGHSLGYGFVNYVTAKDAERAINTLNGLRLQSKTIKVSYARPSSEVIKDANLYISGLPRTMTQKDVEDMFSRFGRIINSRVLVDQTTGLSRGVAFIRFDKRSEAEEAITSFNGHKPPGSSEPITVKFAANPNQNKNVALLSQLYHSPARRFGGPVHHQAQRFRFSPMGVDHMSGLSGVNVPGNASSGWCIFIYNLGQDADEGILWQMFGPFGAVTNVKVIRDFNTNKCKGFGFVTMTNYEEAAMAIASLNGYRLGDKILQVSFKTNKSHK
Protocol: The oncogenic activity of HuR is driven by subcellular localization into the cytoplasm and formation of multimers of HuR. To develop cell based assays to characterize the ability of small molecules to disrupt this process, a split luciferase assay detecting the formation of HuR dimers was developed. The assays were performed in 96 well plates with clear bottom (Corning Inc., Corning, NY). Cells with designed constructs (30,000-50,000 in number) were plated per well; the constructs were induced by doxycycline (0.75 ug/ml) for 48 hours. The evaluated compounds at different concentrations and the corresponding vehicle as the control were administered for 6 hours. The luminescence signals were detected by using InfinitiM200 plate reader (TECAN, Morrisville, NC) in the presence of the luciferase substrate luciferin (D-Luciferin, potassium salt), which was purchased from GoldBio (St Louis, MO). A multichannel pipette (XL 3000I™, Denville Scientific, South Plainfield, NJ) was used in all procedures to ensure the experiment quality.
The assay used the coding sequence of HuR in frame with the N-terminus of firefly luciferase or the C-terminus as depicted in FIG. 2A. When HuR forms dimers in this case, luciferase is generated and with luciferin present, luminescence is generated.
as §4

[4] = Mouse liver microsomal stability in vitro; assay type: in vitro ADME; details: liver microsomes, read-out: MLM t1/2
Protocol: (§5) Selected compounds were assessed for their aqueous solubility, Log D and mouse and human liver microsomal stability.

in vitro = details: human, liver microsomes
Protocol: as §5

Log D at pH 7.4 = assay type: physicochemical
Protocol: as §5

[5] = aqueous solubility at pH 7.4; assay type: physicochemical; details: aqueous medium at pH 7.4, pH 7.4, aqueous buffer; read-out: Sol @ pH 7.4
Protocol: as §5

[6] = split luciferase HuR dimerization assay, compounds administered for 6 hours

Sequence of AAK1 (Q2M2I8 whole entry): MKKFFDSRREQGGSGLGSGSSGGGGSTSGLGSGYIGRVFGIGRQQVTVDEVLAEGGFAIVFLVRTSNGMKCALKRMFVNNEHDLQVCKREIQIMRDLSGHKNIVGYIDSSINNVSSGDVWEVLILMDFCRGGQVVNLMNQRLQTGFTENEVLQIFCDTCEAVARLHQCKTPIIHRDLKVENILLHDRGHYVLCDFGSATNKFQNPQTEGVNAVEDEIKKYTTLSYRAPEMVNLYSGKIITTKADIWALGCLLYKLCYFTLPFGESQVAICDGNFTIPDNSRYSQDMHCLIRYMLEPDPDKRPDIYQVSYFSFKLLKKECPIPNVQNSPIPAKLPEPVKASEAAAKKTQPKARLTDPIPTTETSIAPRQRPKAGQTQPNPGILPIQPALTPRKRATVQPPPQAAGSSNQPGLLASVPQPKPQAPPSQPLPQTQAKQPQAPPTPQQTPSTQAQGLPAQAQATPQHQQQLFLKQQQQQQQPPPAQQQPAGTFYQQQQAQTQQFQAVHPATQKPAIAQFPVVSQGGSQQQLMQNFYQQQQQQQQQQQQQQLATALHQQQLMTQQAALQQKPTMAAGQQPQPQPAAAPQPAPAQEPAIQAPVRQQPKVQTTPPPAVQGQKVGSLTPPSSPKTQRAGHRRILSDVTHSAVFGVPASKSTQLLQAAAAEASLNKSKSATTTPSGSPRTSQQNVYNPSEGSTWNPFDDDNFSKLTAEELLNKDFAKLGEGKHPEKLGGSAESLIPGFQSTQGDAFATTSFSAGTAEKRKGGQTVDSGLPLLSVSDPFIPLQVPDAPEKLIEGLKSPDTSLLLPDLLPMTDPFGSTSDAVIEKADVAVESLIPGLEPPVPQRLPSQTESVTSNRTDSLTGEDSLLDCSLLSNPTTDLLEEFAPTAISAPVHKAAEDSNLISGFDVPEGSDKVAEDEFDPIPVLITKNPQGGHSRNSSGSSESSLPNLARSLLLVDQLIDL

IC50 (AAK1) [µM] | IC50 (IRAK1) [µM] | IC50 (U251 glioma cell line) [µM] | IC50 [2] [µM] | IC50 (LN229 glioma cell line) [µM] | IC50 (PIM1) [µM] | IC50 (cMET) [µM] | IC50 (TRKA (NTRK1)) [µM] | HuR inhibition activity (in words) (HuR) | IC50 (HuR; [6]) [µM] | half-life [4] [min] | half-life (in vitro) [min] | logD (Log D at pH 7.4) | solubility [5] [µM] | HuR N/C Imax % Inh (HuR; Concn 50 uM) [%] | IC50 (HuR; U251 cells co-expressing HuR-Nluc and HuR-Cluc, 6 hours of treatment) [µM] | SMILES | Bcl2 and Mcl1 protein levels in cytoplasmic fractions [1] | cleaved caspase 3 and cleaved PARP (apoptosis) [1] | inhibition at 50 µM [3] [%]
0.03 | 0.3 | 3.4 ± 0.5 | 4.8 ± 1.1 | 3.8 ± 0.5 | 0.829 | 5.98 | 0.099 |  |  |  |  |  |  |  |  | c1cc2cn[nH]c2cc1-c1cnc2ccc(NC3CCOCC3)nn12 [Compound 5] | dramatic reduction | appearances of cleaved caspase 3 and cleaved PARP | 38
15.7 | > 30 |  |  |  | > 30 | > 30 | > 30 | inactive | > 50 |  |  |  |  |  |  | CCN(c1ccc2ncc(-c3ccc4cn[nH]c4c3)n2n1)C1CCOCC1 [Compound 26] |  |  | 
13 | > 30 |  |  |  | > 30 | > 30 | > 30 | inactive | > 50 | 9.8 | > 300 | 0.4 | 65.3 (≈ 24.6 µg/mL) |  |  | CCCN(c1ccc2ncc(-c3ccc4cn[nH]c4c3)n2n1)C1CCOCC1 [Compound 27] |  |  | 
 |  |  |  |  |  |  |  |  | 6 | 1.3 | 6.3 | > 4.48 | < 1 | 72 | 6 | CCCN(C)c1ccc2ncc(-c3ccc4[nH]nc(C(C)=O)c4c3)n2n1 [Compound 53, 1-(5-(6-(Methyl(propyl)amino)imidazo[1,2-b]pyridazin-3-yl)-1H-indazol-3-yl)ethan-1-one] |  |  | 10
